Source: patent publication US12371428B2 (Exelixis, Inc., priority 2019, dated 2025)

How the values were obtained:
[1] = target: Human MET (residues 956-1390) (Homo sapiens (Human), UniProt P08581); assay: Human Met kinase assay, HTRF KinEase (Example D-2); assay type: biochemical; conditions: protocol of Example D-2 (other compounds); read-out: c-Met IC50
Summary of the method: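 IC50 values come from a 4-parameter logistic fit of the […] fluorescence ratio, set between DMSO (100%) and reference compound at 1 μM (0%). Reactions held MET 956-1390 at 0.1 ng/well, ATP at Km, biotinylated peptide, 5 mM MgCl2, 1 mM MnCl2, 1 mM DTT and 3% DMSO, and ran 40 min at room temperature before streptavidin-XL665/Eu-antibody detection.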

[2] = target: KDR (phospho-KDR, VEGF165-stimulated HUVEC cells) (Homo sapiens (Human), UniProt P35968); assay: KDR autophosphorylation ELISA in HUVEC cells (Example G); assay type: cell-based; conditions: cellular activity; KDR autophosphorylation ELISA in HUVEC cells
Summary of the method: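 Cells seeded, grown 24 h at 37 °C, starved 24 h serum-free; cpd 8-pt curve, 0.3% DMSO, 1 h; VEGF165 100 ng/mL, 5 min; cold PBS wash, lysis with orthovanadate and protease/phosphatase inhibitors; pKDR ELISA; IC50 by 4-parameter logistic regression.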

[3] = target: AXL (phospho-AXL, Gas6-stimulated A-172 glioblastoma cells) (Homo sapiens (Human), UniProt P30530); assay: AXL autophosphorylation ELISA in A-172 cells (Example E); assay type: cell-based; conditions: cellular activity; AXL autophosphorylation ELISA in A-172 cells; read-out: Axl IC50
Summary of the method: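 Phospho-AXL in lysates was quantified by ELISA, normalised to DMSO (100%) and reference inhibitor (0%) controls. IC50 by 4-parameter logistic fit.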

KDR (phospho-KDR, VEGF165-stimulated HUVEC cells), sequence (P35968 20-1356): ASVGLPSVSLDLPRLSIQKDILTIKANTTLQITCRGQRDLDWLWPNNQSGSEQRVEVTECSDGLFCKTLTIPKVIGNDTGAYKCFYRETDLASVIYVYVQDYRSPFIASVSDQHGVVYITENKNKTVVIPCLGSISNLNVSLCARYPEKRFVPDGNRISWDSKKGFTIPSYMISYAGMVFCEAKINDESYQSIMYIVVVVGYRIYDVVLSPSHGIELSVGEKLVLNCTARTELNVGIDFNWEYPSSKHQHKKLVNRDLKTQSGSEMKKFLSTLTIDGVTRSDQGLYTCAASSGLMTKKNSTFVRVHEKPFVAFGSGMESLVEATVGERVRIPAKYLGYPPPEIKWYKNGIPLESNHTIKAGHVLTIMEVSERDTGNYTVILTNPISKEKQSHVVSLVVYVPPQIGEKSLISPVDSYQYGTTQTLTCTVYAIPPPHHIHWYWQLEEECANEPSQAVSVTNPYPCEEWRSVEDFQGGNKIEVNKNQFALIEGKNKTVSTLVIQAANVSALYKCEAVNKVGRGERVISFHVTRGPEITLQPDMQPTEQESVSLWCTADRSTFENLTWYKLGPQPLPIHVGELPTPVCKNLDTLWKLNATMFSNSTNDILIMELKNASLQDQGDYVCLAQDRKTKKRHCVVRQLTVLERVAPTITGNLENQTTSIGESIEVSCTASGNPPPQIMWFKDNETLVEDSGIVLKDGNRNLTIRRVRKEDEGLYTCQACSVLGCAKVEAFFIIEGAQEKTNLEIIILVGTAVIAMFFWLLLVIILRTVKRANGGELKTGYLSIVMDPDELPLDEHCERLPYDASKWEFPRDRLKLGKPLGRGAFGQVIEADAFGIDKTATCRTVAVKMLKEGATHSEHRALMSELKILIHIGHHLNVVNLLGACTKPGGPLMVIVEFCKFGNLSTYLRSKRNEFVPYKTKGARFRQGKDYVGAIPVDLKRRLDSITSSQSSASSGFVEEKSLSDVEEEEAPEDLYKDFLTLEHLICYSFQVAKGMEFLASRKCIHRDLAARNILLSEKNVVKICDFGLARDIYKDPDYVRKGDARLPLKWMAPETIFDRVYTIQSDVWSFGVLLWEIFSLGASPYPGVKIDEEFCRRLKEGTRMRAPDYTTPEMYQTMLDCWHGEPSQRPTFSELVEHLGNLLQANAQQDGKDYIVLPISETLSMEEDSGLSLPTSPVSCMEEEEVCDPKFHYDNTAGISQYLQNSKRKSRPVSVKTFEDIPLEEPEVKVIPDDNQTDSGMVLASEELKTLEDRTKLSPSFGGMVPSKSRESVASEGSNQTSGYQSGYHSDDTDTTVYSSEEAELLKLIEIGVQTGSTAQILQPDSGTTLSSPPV
Human MET (residues 956-1390), sequence (P08581 956-1390): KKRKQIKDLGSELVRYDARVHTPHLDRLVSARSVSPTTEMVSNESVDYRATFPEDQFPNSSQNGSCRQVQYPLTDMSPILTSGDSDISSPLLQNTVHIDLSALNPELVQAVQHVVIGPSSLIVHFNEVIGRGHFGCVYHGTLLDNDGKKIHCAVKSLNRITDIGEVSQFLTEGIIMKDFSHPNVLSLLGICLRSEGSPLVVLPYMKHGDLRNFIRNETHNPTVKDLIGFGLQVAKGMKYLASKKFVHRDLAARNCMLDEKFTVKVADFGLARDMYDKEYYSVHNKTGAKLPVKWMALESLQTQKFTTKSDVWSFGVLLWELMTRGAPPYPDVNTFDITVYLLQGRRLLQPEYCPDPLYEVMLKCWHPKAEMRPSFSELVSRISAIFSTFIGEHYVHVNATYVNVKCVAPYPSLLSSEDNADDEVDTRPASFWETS
AXL (phospho-AXL, Gas6-stimulated A-172 glioblastoma cells), sequence (P30530 26-894): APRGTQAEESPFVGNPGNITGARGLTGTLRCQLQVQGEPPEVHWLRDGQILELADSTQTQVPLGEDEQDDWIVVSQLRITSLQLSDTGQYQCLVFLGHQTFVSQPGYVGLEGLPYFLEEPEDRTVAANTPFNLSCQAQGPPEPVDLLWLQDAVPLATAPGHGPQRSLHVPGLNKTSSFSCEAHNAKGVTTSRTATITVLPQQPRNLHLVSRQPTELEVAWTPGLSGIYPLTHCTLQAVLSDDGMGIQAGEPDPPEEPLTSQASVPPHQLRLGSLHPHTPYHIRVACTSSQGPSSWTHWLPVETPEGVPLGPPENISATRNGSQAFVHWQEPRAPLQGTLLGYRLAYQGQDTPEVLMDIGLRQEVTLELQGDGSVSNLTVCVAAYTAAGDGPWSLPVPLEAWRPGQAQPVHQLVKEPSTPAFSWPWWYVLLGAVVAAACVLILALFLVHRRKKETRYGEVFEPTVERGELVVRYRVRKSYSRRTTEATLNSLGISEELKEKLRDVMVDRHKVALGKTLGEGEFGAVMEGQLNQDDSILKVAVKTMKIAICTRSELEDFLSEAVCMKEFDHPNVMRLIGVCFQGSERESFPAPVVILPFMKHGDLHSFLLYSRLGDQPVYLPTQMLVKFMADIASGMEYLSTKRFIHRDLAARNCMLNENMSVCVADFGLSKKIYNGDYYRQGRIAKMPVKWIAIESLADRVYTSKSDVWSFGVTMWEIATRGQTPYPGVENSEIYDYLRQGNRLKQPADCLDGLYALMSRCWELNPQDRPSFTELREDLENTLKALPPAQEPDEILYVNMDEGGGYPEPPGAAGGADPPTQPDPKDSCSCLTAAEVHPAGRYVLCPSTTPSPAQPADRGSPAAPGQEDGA

SMILES	IC50 [1] [nM]	IC50 [2] [nM]	IC50 [3] [nM]
Cc1ncc(C(=O)Nc2ccc(Oc3ccnc4cc(-c5cnn(C(F)F)c5)ccc34)cc2)c(O)c1-c1ccc(F)cc1 [Compound 377, N-[4-[7-[1-(difluoromethyl)pyrazol-4-yl]quinolin-4-yl]oxyphenyl]-5-(4-fluorophenyl)-4-hydroxy-6-methylpyridine-3-carboxamide]	100 to 300	< 100	
COc1ccc2nccc(Oc3ccc(NC(=O)c4ncc(C)n(-c5ccc(F)cc5)c4=O)cc3)c2n1 [Compound 378, 4-(4-fluorophenyl)-N-[4-[(6-methoxy-1,5-naphthyridin-4-yl)oxy]phenyl]-5-methyl-3-oxopyrazine-2-carboxamide]	< 100	> 300	
COc1cc2nccc(Oc3ccc(NC(=O)c4nccn(-c5ccc(F)cc5)c4=O)cc3F)c2nc1OC [Compound 379, N-[4-[(6,7-dimethoxy-1,5-naphthyridin-4-yl)oxy]-3-fluorophenyl]-4-(4-fluorophenyl)-3-oxopyrazine-2-carboxamide]	< 100	< 100	
COc1ccc2nccc(Oc3ccc(NC(=O)c4nccn(-c5ccc(F)cc5)c4=O)cc3F)c2n1 [Compound 380, N-[3-fluoro-4-[(6-methoxy-1,5-naphthyridin-4-yl)oxy]phenyl]-4-(4-fluorophenyl)-3-oxopyrazine-2-carboxamide]	< 100	> 300	
COc1cnc2c(Oc3ccc(NC(=O)c4nccn(-c5ccc(F)cc5)c4=O)cc3F)ccnc2c1 [Compound 381, N-[3-fluoro-4-[(7-methoxy-1,5-naphthyridin-4-yl)oxy]phenyl]-4-(4-fluorophenyl)-3-oxopyrazine-2-carboxamide]	< 100	> 300	
COc1cnc2c(Oc3ccc(NC(=O)c4nccn(-c5ccc(F)cc5)c4=O)cc3)ccnc2c1 [Compound 382, 4-(4-fluorophenyl)-N-[4-[(7-methoxy-1,5-naphthyridin-4-yl)oxy]phenyl]-3-oxopyrazine-2-carboxamide]	< 100	> 300	
COc1ccc2nccc(Oc3ccc(NC(=O)c4nccn(-c5ccc(F)cc5)c4=O)cc3)c2n1 [Compound 383, 4-(4-fluorophenyl)-N-[4-[(6-methoxy-1,5-naphthyridin-4-yl)oxy]phenyl]-3-oxopyrazine-2-carboxamide]	< 100	> 300	

Continued, values first:

IC50 [1] [nM]	IC50 [2] [nM]	IC50 [3] [nM]	SMILES
< 100	< 100		COc1cc2nccc(Oc3ccc(NC(=O)c4nccn(-c5ccc(F)cc5)c4=O)cc3)c2nc1OC [Compound 384, N-[4-[(6,7-dimethoxy-1,5-naphthyridin-4-yl)oxy]phenyl]-4-(4-fluorophenyl)-3-oxopyrazine-2-carboxamide]
< 100	< 100		COc1cc2nccc(Oc3ccc(NC(=O)c4ccnn(-c5ccc(F)cc5)c4=O)cc3F)c2nc1OC [Compound 386, N-[4-[(6,7-dimethoxy-1,5-naphthyridin-4-yl)oxy]-3-fluorophenyl]-2-(4-fluorophenyl)-3-oxopyridazine-4-carboxamide]
< 100	< 100		COc1cc2nccc(Oc3ccc(NC(=O)c4cn(C)c(C)c(-c5ccc(F)cc5)c4=O)cc3Cl)c2nc1OC [Compound 388, N-[3-chloro-4-[(6,7-dimethoxy-1,5-naphthyridin-4-yl)oxy]phenyl]-5-(4-fluorophenyl)-1,6-dimethyl-4-oxopyridine-3-carboxamide]
> 300	> 300		COc1cc2nccc(Oc3ccc(NC(=O)c4cn(C)c(C)c(-c5ccc(F)cc5)c4=O)c(F)c3)c2nc1OC [Compound 389, N-[4-[(6,7-dimethoxy-1,5-naphthyridin-4-yl)oxy]-2-fluorophenyl]-5-(4-fluorophenyl)-1,6-dimethyl-4-oxopyridine-3-carboxamide]
< 100	< 100		COc1cc2nccc(Oc3ccc(NC(=O)c4cn(C)c(C)c(-c5ccc(F)cc5)c4=O)c(F)c3F)c2nc1OC [Compound 390, N-[4-[(6,7-dimethoxy-1,5-naphthyridin-4-yl)oxy]-2,3-difluorophenyl]-5-(4-fluorophenyl)-1,6-dimethyl-4-oxopyridine-3-carboxamide]
< 100	> 300		COc1cc2nccc(Oc3cc(F)c(NC(=O)c4cn(C)c(C)c(-c5ccc(F)cc5)c4=O)cc3F)c2nc1OC [Compound 391, N-[4-[(6,7-dimethoxy-1,5-naphthyridin-4-yl)oxy]-2,5-difluorophenyl]-5-(4-fluorophenyl)-1,6-dimethyl-4-oxopyridine-3-carboxamide]
< 100	> 300		COc1cc2nccc(Oc3c(F)cc(NC(=O)c4cn(C)c(C)c(-c5ccc(F)cc5)c4=O)cc3F)c2nc1OC [Compound 392, N-[4-[(6,7-dimethoxy-1,5-naphthyridin-4-yl)oxy]-3,5-difluorophenyl]-5-(4-fluorophenyl)-1,6-dimethyl-4-oxopyridine-3-carboxamide]
< 100	< 100		COc1cc2nccc(Oc3ccc(NC(=O)c4ncc(C)n(-c5ccc(F)cc5C)c4=O)cc3F)c2nc1OC [Compound 393, N-[4-[(6,7-dimethoxy-1,5-naphthyridin-4-yl)oxy]-3-fluorophenyl]-4-(4-fluoro-2-methylphenyl)-5-methyl-3-oxopyrazine-2-carboxamide]
< 100	> 300		COc1ccc2nccc(Oc3ccc(NC(=O)c4ncc(C)n(-c5ccc(F)cc5C)c4=O)cc3F)c2n1 [Compound 394, N-[3-fluoro-4-[(6-methoxy-1,5-naphthyridin-4-yl)oxy]phenyl]-4-(4-fluoro-2-methylphenyl)-5-methyl-3-oxopyrazine-2-carboxamide]
< 100	> 300	< 100	COc1cc2nccc(Oc3ncc(NC(=O)c4cn(C5CC5)cc(-c5ccc(F)cc5)c4=O)cc3F)c2cc1OC [Compound 399, 1-cyclopropyl-N-[6-(6,7-dimethoxyquinolin-4-yl)oxy-5-fluoropyridin-3-yl]-5-(4-fluorophenyl)-4-oxopyridine-3-carboxamide]
< 100	> 300		COc1cc2nccc(Oc3ncc(NC(=O)c4cn(C5CN(C)C5)cc(-c5ccc(F)cc5)c4=O)cc3F)c2cc1OC [Compound 400, N-[6-(6,7-dimethoxyquinolin-4-yl)oxy-5-fluoropyridin-3-yl]-5-(4-fluorophenyl)-1-(1-methylazetidin-3-yl)-4-oxopyridine-3-carboxamide]
